Test results: patent US11407767B2, “Heterocyclyl substituted pyrrolopyridines that are inhibitors of the CDK12 kinase” (The University of Nottingham, priority 2017, dated 2022)

Experiments:
DM1 fibroblasts = test: Nuclear foci assay; format: cell-based; settings: Fibroblast; DM1 fibroblasts treated for 24 hours, 11 point dilution 20 μM-19 nM, in situ hybridisation with cy3 labelled CAG10 probe
Description: DM1 fibroblasts were treated with compounds in an 11 point dilution series from 20 μM-19 nM for 24 hours. Following treatment, fluorescent in situ hybridisation was performed with a cy3 labelled CAG10 probe, to visualize nuclear foci and cells were analysed on a Molecular Devices plate reader with customised MetaExpress software (Ketley, A. et al. (2014). Hum Mol Genet, 23: 1551-1562). Compounds that reduced nuclear foci in a concentration dependent manner, compared to DMSO treated cells were identified.

CDK12/CycK = CDK12/CycK (Homo sapiens, UniProt Q9NYV4); test: Inhibition of CDK12 (ADP-Glo kinase assay); format: biochemical; settings: 60 nM CDK12/CycK, 30 minutes pre-incubation, 1 μM ATP, 0.5 μM RBER-IRStide substrate, 1 h at 25° C., read-out: CDK12/cyclin K IC50
CDK12/CycK, sequence (Q9NYV4 whole entry): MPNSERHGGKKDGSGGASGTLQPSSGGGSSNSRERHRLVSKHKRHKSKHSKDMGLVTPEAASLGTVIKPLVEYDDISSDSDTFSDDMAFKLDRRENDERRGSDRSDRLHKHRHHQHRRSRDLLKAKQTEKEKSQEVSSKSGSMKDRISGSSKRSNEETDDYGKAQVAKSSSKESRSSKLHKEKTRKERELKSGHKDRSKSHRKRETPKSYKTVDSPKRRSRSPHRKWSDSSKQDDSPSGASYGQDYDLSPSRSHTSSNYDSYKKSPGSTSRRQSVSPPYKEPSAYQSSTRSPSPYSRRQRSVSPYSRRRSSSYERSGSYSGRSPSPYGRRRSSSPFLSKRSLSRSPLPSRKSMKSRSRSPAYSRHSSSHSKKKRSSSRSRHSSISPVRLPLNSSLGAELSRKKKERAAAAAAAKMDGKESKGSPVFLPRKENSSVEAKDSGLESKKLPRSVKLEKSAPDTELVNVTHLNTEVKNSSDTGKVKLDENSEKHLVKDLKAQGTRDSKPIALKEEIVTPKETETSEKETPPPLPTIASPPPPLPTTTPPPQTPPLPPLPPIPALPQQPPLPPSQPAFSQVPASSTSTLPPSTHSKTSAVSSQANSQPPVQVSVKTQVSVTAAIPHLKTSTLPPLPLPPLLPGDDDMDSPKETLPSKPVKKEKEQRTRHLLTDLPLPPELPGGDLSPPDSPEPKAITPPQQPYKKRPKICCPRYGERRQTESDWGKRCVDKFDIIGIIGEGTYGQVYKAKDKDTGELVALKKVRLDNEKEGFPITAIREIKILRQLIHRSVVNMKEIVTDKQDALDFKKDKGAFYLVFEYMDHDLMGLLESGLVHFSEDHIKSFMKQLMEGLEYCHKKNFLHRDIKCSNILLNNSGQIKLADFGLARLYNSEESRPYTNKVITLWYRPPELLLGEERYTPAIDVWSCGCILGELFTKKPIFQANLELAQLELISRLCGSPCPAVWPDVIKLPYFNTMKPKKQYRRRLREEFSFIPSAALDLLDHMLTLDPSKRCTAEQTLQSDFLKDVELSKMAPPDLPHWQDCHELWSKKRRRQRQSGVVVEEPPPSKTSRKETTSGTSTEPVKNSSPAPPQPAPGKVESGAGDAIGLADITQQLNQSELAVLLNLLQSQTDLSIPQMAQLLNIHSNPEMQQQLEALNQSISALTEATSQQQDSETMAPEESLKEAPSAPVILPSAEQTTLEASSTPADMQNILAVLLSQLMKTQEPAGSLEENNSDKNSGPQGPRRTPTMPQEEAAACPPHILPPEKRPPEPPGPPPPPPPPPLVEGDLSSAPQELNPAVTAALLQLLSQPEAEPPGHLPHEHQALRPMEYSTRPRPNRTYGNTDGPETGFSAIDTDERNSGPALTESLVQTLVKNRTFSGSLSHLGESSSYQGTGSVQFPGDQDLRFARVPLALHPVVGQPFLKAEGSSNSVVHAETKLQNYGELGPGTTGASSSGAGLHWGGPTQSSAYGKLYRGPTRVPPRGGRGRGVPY
CDK12/CycK, sequence (O75909 whole entry partner): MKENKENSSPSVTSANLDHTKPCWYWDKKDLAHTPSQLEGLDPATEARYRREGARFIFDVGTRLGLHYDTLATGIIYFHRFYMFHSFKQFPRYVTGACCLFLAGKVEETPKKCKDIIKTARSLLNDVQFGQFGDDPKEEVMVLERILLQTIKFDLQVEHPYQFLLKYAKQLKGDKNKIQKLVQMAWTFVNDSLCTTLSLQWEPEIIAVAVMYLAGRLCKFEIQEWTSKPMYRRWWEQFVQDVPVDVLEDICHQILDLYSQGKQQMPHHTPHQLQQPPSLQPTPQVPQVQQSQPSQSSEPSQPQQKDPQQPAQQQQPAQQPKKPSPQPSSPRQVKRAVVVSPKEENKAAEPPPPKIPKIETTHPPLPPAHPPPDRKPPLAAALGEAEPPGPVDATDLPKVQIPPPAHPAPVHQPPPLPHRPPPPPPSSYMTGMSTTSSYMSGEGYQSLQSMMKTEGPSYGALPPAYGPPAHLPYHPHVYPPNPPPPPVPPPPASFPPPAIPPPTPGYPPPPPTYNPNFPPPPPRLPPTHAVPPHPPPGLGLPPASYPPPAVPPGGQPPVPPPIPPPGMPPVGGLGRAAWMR
Method in brief: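 Compounds pre-incubated 30 min with 60 nM CDK12/CycK in HEPES pH 7.5 buffer with Mg2+/Mn2+, 1% DMSO final. Reaction started with 1 μM ATP and 0.5 μM RBER-IRStide, run 1 h at 25 °C; ADP-Glo luminescence, no-kinase blank subtracted, IC50 from sigmoidal fit of % inhibition.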

CN(C)C/C=C/C(=O)N1CC[C@@H](OCC(=O)N2CCC(c3cc4c(-c5cnn6ncccc56)ccnc4[nH]3)C2)C1 (stereo partly drawn) [Example 71, (E)-4-(Dimethylamino)-1-((3R)-3-(2-oxo-2-(3-(4-(pyrazolo[1,5-b]pyridazin-3-yl)-1H-pyrrolo[2,3-b]pyridin-2-yl)pyrrolidin-1-yl)ethoxy)pyrrolidin-1-yl)but-2-en-1-one]
IC50 (DM1 fibroblasts): 1 to 10 µM | IC50 (CDK12/CycK): 0.1 to 1 µM

C=CC(=O)N1CCC[C@H]1C(=O)NCCc1cc2c(-c3cnn4ncccc34)ccnc2[nH]1 [Example 32, (S)-1-Acryloyl-N-(2-(4-(pyrazolo[1,5-b]pyridazin-3-yl)-1H-pyrrolo[2,3-b]pyridin-2-yl)ethyl)pyrrolidine-2-carboxamide]
IC50 (DM1 fibroblasts): < 1 µM | IC50 (CDK12/CycK): < 0.1 µM

C=CC(=O)Nc1ccc(C(=O)NCCc2cc3c(-c4cnn5ncccc45)ccnc3[nH]2)cc1 [Example 76, 4-Acrylamido-N-(2-(4-(pyrazolo[1,5-b]pyridazin-3-yl)-1H-pyrrolo[2,3-b]pyridin-2-yl)ethyl)benzamide]
IC50 (DM1 fibroblasts): < 1 µM | IC50 (CDK12/CycK): < 0.1 µM

C=CC(=O)Nc1cccc(C(=O)N2CC[C@H](c3cc4c(-c5cnn6ncccc56)ccnc4[nH]3)C2)c1 [Example 151, (S)—N-(3-(3-(4-(Pyrazolo[1,5-b]pyridazin-3-yl)-1H-pyrrolo[2,3-b]pyridin-2-yl)pyrrolidine-1-carbonyl)phenyl)acrylamide]
IC50 (DM1 fibroblasts): < 1 µM | IC50 (CDK12/CycK): < 0.1 µM

C=C(C)C(=O)N1CCC[C@H]1C(=O)NCCc1cc2c(-c3cnn4ncccc34)ccnc2[nH]1 [Example 43, (S)-1-Methacryloyl-N-(2-(4-(pyrazolo[1,5-b]pyridazin-3-yl)-1H-pyrrolo[2,3-b]pyridin-2-yl)ethyl)pyrrolidine-2-carboxamide]
IC50 (DM1 fibroblasts): 10 to 100 µM | IC50 (CDK12/CycK): 1 to 30 µM

C=CC(=O)Nc1ccc(C(=O)N2CCC(c3cc4c(-c5c[nH]c6ccccc56)ccnc4[nH]3)C2)cc1 (stereo not drawn) [Example 129, N-(4-(3-(4-(1H-Indol-3-yl)-1H-pyrrolo[2,3-b]pyridin-2-yl)pyrrolidine-1-carbonyl)phenyl)acrylamide]
IC50 (DM1 fibroblasts): 1 to 10 µM | IC50 (CDK12/CycK): < 0.1 µM

C=CC(=O)N1CCC[C@H]1C(=O)OCCc1cc2c(-c3cnn4ncccc34)ccnc2[nH]1 [Example 213, 2-(4-(Pyrazolo[1,5-b]pyridazin-3-yl)-1H-pyrrolo[2,3-b]pyridin-2-yl)ethyl acryloyl-L-prolinate]
IC50 (DM1 fibroblasts): < 1 µM | IC50 (CDK12/CycK): 0.1 to 1 µM

CN(C)C/C=C/C(=O)N1CCC(CC(=O)N2CCC(c3cc4c(-c5cnn6ncccc56)ccnc4[nH]3)C2)CC1 (stereo not drawn) [Example 69, (E)-4-(Dimethylamino)-1-(4-(2-oxo-2-(3-(4-(pyrazolo[1,5-b]pyridazin-3-yl)-1H-pyrrolo[2,3-b]pyridin-2-yl)pyrrolidin-1-yl)ethyl)piperidin-1-yl)but-2-en-1-one]
IC50 (DM1 fibroblasts): 10 to 100 µM | IC50 (CDK12/CycK): 0.1 to 1 µM

c1cc(-c2ccc3[nH]nnc3c2)c2cc[nH]c2n1 [Example 21, 5-(1H-Pyrrolo[2,3-b]pyridin-4-yl)-1H-benzo[d][1,2,3]triazole]
IC50 (DM1 fibroblasts): 10 to 100 µM | IC50 (CDK12/CycK): 1 to 30 µM
